Laboratory results published in ChEMBL document CHEMBL4673309, “Synthesis and anticancer activity of new coumarin-3-carboxylic acid derivatives as potential lactatetransportinhibitors” (Bioorg Med Chem, 2021).
Calls of active or inactive are those of the source. The rule behind the calls is not given here.

The compounds below were run on NCM460 (assay: Cytotoxicity against human NCM460 cells harboring low MCT1 expression incubated for 72 hrs by MTT assay). Details: ncm460, 72 h.
Format: cell-based

Row | SMILES | Activity
1 | CCN(CC)c1ccc2cc(C(=O)NC3CC3)c(=O)oc2c1 | Non-Toxic
2 | N#C/C(=C\c1ccc(O)cc1)C(=O)O [alpha-CYANO-4-HYDROXYCINNAMIC ACID] | Non-Toxic
3 | CCCOc1ccc2cc(C(=O)NN)c(=O)oc2c1 | Non-Toxic
4 | CCN(CC)c1ccc2cc(C(=O)NCCO)c(=O)oc2c1 | Non-Toxic
5 | CCOc1ccc2cc(C(=O)NCCO)c(=O)oc2c1 | Non-Toxic
6 | O=C(NCCO)c1cc2ccc(OCc3ccccc3)cc2oc1=O | Non-Toxic
7 | O=C(Nc1ccccc1)c1cc2ccc(OCc3ccccc3)cc2oc1=O | Non-Toxic
8 | CCCOc1ccc2cc(C(=O)NCCO)c(=O)oc2c1 | Non-Toxic
9 | O=C(NCCNC(=O)c1cc2ccc(OCc3ccccc3)cc2oc1=O)c1cc2ccc(OCc3ccccc3)cc2oc1=O | Non-Toxic
10 | O=C(NO)c1cc2ccc(OCc3ccccc3)cc2oc1=O | Non-Toxic
11 | O=C(NCCO)c1cc2ccc(OCc3ccc([N+](=O)[O-])cc3)cc2oc1=O | Non-Toxic
12 | NNC(=O)c1cc2ccc(OCc3ccccc3)cc2oc1=O | Non-Toxic

What follows are compounds tested on HCT-116 (assay: Induction of apoptosis in human HCT-116 cells assessed as early apoptosis measured after 48 hrs by annexinV-FITC/propidium iodide staining based by flow cytometry (reference value: 3.42 %)). Details: not given.
Format: functional

Row | SMILES | Activity
13 | N#C/C(=C\c1ccc(O)cc1)C(=O)O [alpha-CYANO-4-HYDROXYCINNAMIC ACID] | 2.07%

The compounds below were run on HCT-116 (assay: Cytotoxicity against human HCT-116 cells overexpressing MCT-1 assessed as reduction in cell viability measured after 72 hrs by MTT assay). Details: HCT-116, 72 h.
Format: functional, cell-based

Row | SMILES | IC50
14 | CCN(CC)c1ccc2cc(C(=O)NC3CC3)c(=O)oc2c1 | > 100 µM
15 | N#C/C(=C\c1ccc(O)cc1)C(=O)O [alpha-CYANO-4-HYDROXYCINNAMIC ACID] | 1650 µM
16 | CCCOc1ccc2cc(C(=O)NN)c(=O)oc2c1 | 69.8 µM
17 | CCN(CC)c1ccc2cc(C(=O)NCCO)c(=O)oc2c1 | > 100 µM
18 | CCOc1ccc2cc(C(=O)NCCO)c(=O)oc2c1 | > 100 µM
19 | O=C(NCCO)c1cc2ccc(OCc3ccccc3)cc2oc1=O | 18.7 µM
20 | O=C(Nc1ccccc1)c1cc2ccc(OCc3ccccc3)cc2oc1=O | > 100 µM
21 | CCCOc1ccc2cc(C(=O)NCCO)c(=O)oc2c1 | > 100 µM
22 | O=C(NCCNC(=O)c1cc2ccc(OCc3ccccc3)cc2oc1=O)c1cc2ccc(OCc3ccccc3)cc2oc1=O | 15.9 µM
23 | O=C(NO)c1cc2ccc(OCc3ccccc3)cc2oc1=O | 39.5 µM
24 | O=C(NCCO)c1cc2ccc(OCc3ccc([N+](=O)[O-])cc3)cc2oc1=O | 33.4 µM
25 | NNC(=O)c1cc2ccc(OCc3ccccc3)cc2oc1=O | > 100 µM

The compounds below were run on HeLa (assay: Induction of apoptosis in human HeLa cells assessed as early apoptosis measured after 48 hrs by annexinV-FITC/propidium iodide staining based by flow cytometry (reference value: 2.94 %)). Details: not given.
Format: functional

Row | SMILES | Activity
26 | N#C/C(=C\c1ccc(O)cc1)C(=O)O [alpha-CYANO-4-HYDROXYCINNAMIC ACID] | 8.8%

The compounds below were run on HeLa (assay: Decrease in intracellular glucose level in human HeLa cells at IC50 after 4 hrs by colorimetric assay). Details: not given.
Format: functional, cell-based

Row | SMILES | inhibition
27 | N#C/C(=C\c1ccc(O)cc1)C(=O)O [alpha-CYANO-4-HYDROXYCINNAMIC ACID] | Active

These compounds were tested on HeLa (assay: Reduction of lactate production in human HeLa cells at IC50 after 8 hrs by colorimetric assay). Details: not given.
Format: functional, cell-based

Row | SMILES | inhibition
28 | N#C/C(=C\c1ccc(O)cc1)C(=O)O [alpha-CYANO-4-HYDROXYCINNAMIC ACID] | Active

Each compound was assayed on HCT-116 (assay: Decrease in glucose consumption in human HCT-116 cells at IC50 after 4 to 24 hrs by glucose oxidase based colorimetric assay). Details: time 4-24 hrs.
Format: functional, cell-based

Row | SMILES | inhibition
29 | N#C/C(=C\c1ccc(O)cc1)C(=O)O [alpha-CYANO-4-HYDROXYCINNAMIC ACID] | Active

The compounds below were run on HeLa (assay: Antiproliferative activity against human HeLa cells assessed as reduction in cell proliferation at IC50 incubated for 6 days and measured on day 6 by MTS assay). Details: time 6.0 day.
Format: functional, cell-based

Row | SMILES | Activity
30 | N#C/C(=C\c1ccc(O)cc1)C(=O)O [alpha-CYANO-4-HYDROXYCINNAMIC ACID] | Active

These compounds were tested on HeLa (assay: Cytotoxicity against human HeLa cells overexpressing MCT-1 assessed as reduction in cell viability measured after 72 hrs by MTT assay). Details: not given.
Format: functional, cell-based

Row | SMILES | IC50
31 | CCN(CC)c1ccc2cc(C(=O)NC3CC3)c(=O)oc2c1 | > 100 µM
32 | N#C/C(=C\c1ccc(O)cc1)C(=O)O [alpha-CYANO-4-HYDROXYCINNAMIC ACID] | 2140 µM
33 | CCCOc1ccc2cc(C(=O)NN)c(=O)oc2c1 | > 100 µM
34 | CCN(CC)c1ccc2cc(C(=O)NCCO)c(=O)oc2c1 | > 100 µM
35 | CCOc1ccc2cc(C(=O)NCCO)c(=O)oc2c1 | > 100 µM
36 | O=C(NCCO)c1cc2ccc(OCc3ccccc3)cc2oc1=O | 14.2 µM
37 | O=C(Nc1ccccc1)c1cc2ccc(OCc3ccccc3)cc2oc1=O | > 100 µM
38 | CCCOc1ccc2cc(C(=O)NCCO)c(=O)oc2c1 | 22.6 µM
39 | O=C(NCCNC(=O)c1cc2ccc(OCc3ccccc3)cc2oc1=O)c1cc2ccc(OCc3ccccc3)cc2oc1=O | 12.1 µM
40 | O=C(NO)c1cc2ccc(OCc3ccccc3)cc2oc1=O | 31.8 µM
41 | O=C(NCCO)c1cc2ccc(OCc3ccc([N+](=O)[O-])cc3)cc2oc1=O | 6.89 µM
42 | NNC(=O)c1cc2ccc(OCc3ccccc3)cc2oc1=O | > 100 µM

Each compound was assayed on HeLa (assay: Inhibition of lactate transport in human HeLa cells assessed as increase in intracellular lactate level at IC50 measured after 8 to 24 hrs by colorimetric assay). Details: time 8-24 hrs.
Format: functional, cell-based

Row | SMILES | inhibition
43 | N#C/C(=C\c1ccc(O)cc1)C(=O)O [alpha-CYANO-4-HYDROXYCINNAMIC ACID] | Active

The compounds below were run on HCT-116 (assay: Induction of apoptosis in human HCT-116 cells assessed as late apoptotic cells measured after 48 hrs by annexinV-FITC/propidium iodide staining based by flow cytometry (reference value: 2.78 %)). Details: not given.
Format: functional

Row | SMILES | Activity
44 | N#C/C(=C\c1ccc(O)cc1)C(=O)O [alpha-CYANO-4-HYDROXYCINNAMIC ACID] | 9.36%

Each compound was assayed on HeLa (assay: Induction of apoptosis in human HeLa cells assessed as late apoptotic cells measured after 48 hrs by annexinV-FITC/propidium iodide staining based by flow cytometry (reference value: 3.85 %)). Details: not given.
Format: functional

Row | SMILES | Activity
45 | N#C/C(=C\c1ccc(O)cc1)C(=O)O [alpha-CYANO-4-HYDROXYCINNAMIC ACID] | 13.6%

The compounds below were run on HCT-116 (assay: Reduction of lactate production in human HCT-116 cells at IC50 after 4 to 24 hrs by colorimetric assay). Details: time 4-24 hrs.
Format: functional, cell-based

Row | SMILES | inhibition
46 | N#C/C(=C\c1ccc(O)cc1)C(=O)O [alpha-CYANO-4-HYDROXYCINNAMIC ACID] | Active
